Laboratory results: ChEMBL document CHEMBL1158022, “Norpregnane glycosides from a Thai soft coral, Scleronephthya pallida” (J Nat Prod, 1999)
≈ marks a conversion by molar mass, not a printed value.

Columns and labels:
Plasmodium falciparum = assay: Antimalarial activity against multidrug-resistant Plasmodium falciparum K1 by [3H]hypoxanthine uptake; type: functional, organism-based
[1] = Cytotoxicity against BCA1 cells by SRB assay; type: functional; settings: read-out: ED50 (the source's name)

CCN(CC)CCCC(C)Nc1ccnc2cc(Cl)ccc12.O=P(O)(O)O.O=P(O)(O)O (stereo not drawn) [CHLOROQUINE PHOSPHATE]
EC50 (Plasmodium falciparum): 1.6 ×10⁻⁷ g/ml

C=C[C@H]1CC[C@H]2[C@@H]3CCc4cc(O[C@H]5O[C@H](C)[C@H](O)[C@H](O)[C@H]5O)ccc4[C@H]3CC[C@]12C
EC50 (Plasmodium falciparum; Plasmodium falciparum, K1, read-out: EC50): 1.5 µg/mL (≈ 3.5 µM)
EC50 [1]: 10 µg/mL (≈ 23.3 µM)
